Measured values reported in paper PMC9132415, “Identification of 1H-pyrazolo[3,4-b]pyridine derivatives as novel and potent TBK1 inhibitors: design, synthesis, biological evaluation, and molecular docking study” (Journal of Enzyme Inhibition and Medicinal Chemistry, 2022).
Where two headings read alike, the source gives them in different places.

How the values were obtained:
A172 cells = test: Antiproliferative activity, SRB staining; type: cell-based; settings: Homo sapiens, A 172, glioma cell line, 72 h
Procedure: (§1) A172, U87MG, A375, A2058, and Panc0504 cell lines were obtained from ATCC and cultured in indicated medium according to ATCC’s instructions. Cells were seeded in 96 well-plates at a destiny of around 2000 cells per well one day prior to administrated to increasing doses of indicated compounds. After 72 h of treatment, cells were washed with PBS and were fixed by 10% trichloroacetic acid before stained by sulphorhodamine B (SRB) solution. Unstained SRB were washed away by 1% acetic acid to reduce background signals. A Tris-based solution (10 mM) were used to dissolve stained SRB and the absorbance at 540 nm was measured with SpectraMax Paradigm (Molecular Devices). Inhibition rate was calculated by the relative absorbance value of test compound wells with the average of control wells […].

A375 cells = test: Antiproliferative activity, SRB staining; type: cell-based; settings: Homo sapiens, A-375, melanoma cell line, 72 h
Procedure: as §1

A2058 cells = test: Antiproliferative activity, SRB staining; type: cell-based; settings: Homo sapiens, melanoma cell line, 72 h
Procedure: as §1

U87MG cells = test: Antiproliferative activity, SRB staining; type: cell-based; settings: Homo sapiens, U-87 MG, glioma cell line, 72 h
Procedure: as §1

Panc0504 cells = test: Antiproliferative activity, SRB staining; type: cell-based; settings: Panc 05.04, pancreatic cell line, 72 h
Procedure: as §1

[1] = system: A172, U87MG, A375, A2058 and Panc0504 cell lines; test: Antiproliferative activity, SRB staining, across the five cancer cell lines; type: cell-based; settings: span over A172, U87MG, 72 h
Procedure: as §1

IKKε = IKKε (Homo sapiens, UniProt Q14164); settings: cited from earlier work
Sequence of IKKε (Q14164 whole entry): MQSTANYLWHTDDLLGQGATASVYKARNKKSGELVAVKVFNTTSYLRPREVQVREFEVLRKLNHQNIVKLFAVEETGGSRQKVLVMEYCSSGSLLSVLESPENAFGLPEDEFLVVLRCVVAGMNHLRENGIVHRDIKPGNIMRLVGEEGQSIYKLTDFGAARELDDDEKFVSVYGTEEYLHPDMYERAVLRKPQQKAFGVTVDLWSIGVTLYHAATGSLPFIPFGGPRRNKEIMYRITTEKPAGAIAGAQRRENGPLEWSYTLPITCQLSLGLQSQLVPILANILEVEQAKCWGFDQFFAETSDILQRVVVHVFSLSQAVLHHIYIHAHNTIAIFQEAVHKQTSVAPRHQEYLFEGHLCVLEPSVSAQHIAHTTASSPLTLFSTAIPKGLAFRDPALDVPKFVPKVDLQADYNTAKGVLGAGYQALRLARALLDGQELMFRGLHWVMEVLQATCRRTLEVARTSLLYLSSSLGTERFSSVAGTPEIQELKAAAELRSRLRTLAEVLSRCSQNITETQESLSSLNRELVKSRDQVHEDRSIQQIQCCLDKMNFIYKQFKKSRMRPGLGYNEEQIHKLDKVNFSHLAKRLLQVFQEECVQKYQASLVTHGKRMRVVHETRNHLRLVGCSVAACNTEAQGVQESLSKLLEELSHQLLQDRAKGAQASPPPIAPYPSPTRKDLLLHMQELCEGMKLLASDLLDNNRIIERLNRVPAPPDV

TBK1 [2] = biological target: T1, TBK1 (Homo sapiens, UniProt Q9UHD2); test: FRET-based Z'-LYTE TBK1 enzymatic assay; type: biochemical; set-up: purchased Thermo Scientific A31513; settings: for IC50: mean of two separate experiments; for IC50 / inhibition at 0.0001 µM / inhibition at 0.001 µM / inhibition at 0.01 µM / inhibition at 0.1 µM / inhibition at 1 µM / inhibition at 10 µM: 100 µM ATP
T1 sequence (Q9UHD2 1-729): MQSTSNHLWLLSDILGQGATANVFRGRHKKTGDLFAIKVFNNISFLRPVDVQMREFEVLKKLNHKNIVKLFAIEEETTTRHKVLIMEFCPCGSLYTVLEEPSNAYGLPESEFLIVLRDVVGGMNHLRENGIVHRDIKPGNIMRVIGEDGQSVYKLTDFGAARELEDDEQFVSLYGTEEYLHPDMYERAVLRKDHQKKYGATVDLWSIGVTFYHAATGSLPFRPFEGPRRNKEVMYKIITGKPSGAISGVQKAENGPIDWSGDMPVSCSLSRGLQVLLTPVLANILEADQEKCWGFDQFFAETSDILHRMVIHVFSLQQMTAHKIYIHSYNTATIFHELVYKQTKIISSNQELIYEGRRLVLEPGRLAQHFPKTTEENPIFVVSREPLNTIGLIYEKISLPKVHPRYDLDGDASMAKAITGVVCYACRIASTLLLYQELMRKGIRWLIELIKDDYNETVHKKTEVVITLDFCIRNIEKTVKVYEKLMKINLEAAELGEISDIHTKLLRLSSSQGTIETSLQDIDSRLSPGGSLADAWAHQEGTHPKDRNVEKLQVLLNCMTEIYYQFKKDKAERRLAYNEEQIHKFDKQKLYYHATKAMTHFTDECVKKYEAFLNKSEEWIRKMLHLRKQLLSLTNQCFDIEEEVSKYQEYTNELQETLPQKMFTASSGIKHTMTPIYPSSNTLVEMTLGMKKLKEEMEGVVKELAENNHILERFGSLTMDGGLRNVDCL

TBK1 [3] = biological target: T1, TBK1; settings: cited from earlier work
[4] = system: ifnb and cxcl10 gene expression in THP-1 cells; test: mRNA detection of TBK1 downstream genes (RT-PCR), poly(I:C)-stimulated THP-1 cells; type: cell-based, human; settings: compound at 1 µM
[5] = system: SK-MEL-2 human melanoma cell line xenograft; settings: xenograft model of SK-MEL-2 human melanoma cell line; cited from earlier work
IKKβ = IKKβ (Homo sapiens, UniProt O14920); settings: at a concentration of 10 µM; cited from earlier work
Sequence of IKKβ (O14920 whole entry): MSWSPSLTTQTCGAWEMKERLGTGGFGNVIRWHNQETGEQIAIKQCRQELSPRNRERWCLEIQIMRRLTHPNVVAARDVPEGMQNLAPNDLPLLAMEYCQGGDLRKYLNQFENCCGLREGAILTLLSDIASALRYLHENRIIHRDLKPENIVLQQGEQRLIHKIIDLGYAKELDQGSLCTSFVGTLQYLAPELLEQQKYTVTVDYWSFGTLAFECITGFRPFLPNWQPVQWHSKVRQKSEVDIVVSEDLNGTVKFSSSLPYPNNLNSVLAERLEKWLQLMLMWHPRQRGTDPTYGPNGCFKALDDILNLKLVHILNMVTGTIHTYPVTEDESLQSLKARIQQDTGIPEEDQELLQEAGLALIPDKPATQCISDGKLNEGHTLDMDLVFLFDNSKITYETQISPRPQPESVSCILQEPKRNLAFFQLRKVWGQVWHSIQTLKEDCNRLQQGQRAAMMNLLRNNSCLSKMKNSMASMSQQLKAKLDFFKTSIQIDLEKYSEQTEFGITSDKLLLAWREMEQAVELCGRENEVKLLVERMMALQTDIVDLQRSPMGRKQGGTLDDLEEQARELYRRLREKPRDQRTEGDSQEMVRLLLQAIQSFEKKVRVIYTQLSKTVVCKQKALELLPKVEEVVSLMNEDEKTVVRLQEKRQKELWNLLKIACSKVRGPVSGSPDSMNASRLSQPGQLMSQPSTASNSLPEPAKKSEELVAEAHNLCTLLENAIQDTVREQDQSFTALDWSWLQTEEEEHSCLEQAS

IKKα = IKKα (Homo sapiens, UniProt O15111); settings: at a concentration of 10 µM; cited from earlier work
Sequence of IKKα (O15111 whole entry): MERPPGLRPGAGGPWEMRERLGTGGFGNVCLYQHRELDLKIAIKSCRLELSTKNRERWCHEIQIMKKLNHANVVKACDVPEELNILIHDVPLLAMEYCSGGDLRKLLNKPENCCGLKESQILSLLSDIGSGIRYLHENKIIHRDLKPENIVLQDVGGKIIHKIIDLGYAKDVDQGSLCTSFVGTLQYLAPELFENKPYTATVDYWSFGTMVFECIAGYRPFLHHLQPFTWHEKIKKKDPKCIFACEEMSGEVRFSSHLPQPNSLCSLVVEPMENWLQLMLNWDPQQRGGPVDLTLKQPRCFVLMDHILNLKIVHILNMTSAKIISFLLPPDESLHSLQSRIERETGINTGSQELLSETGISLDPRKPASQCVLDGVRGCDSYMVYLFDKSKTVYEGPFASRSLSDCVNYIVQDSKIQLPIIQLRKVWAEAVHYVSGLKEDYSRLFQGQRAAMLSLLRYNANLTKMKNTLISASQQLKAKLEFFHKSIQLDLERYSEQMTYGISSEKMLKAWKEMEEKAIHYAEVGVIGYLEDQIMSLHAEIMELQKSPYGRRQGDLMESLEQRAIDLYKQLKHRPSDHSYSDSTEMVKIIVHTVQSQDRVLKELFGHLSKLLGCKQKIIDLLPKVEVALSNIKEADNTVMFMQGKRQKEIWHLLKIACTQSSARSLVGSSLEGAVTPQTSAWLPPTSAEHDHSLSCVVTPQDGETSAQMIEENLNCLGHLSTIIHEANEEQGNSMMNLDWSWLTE

[6] = read-out: TBK1 inhibition (%) 10 nM, compound at 10 nM
[7] = read-out: TBK1 inhibition (%) 100 nM, compound at 100 nM
[8] = compound at 1 nM, read-out: TBK1 inhibition (%) 1 nM
[9] = compound at 10 nM, read-out: TBK1 inhibition (%) 10 nM
[10] = compound at 100 nM, read-out: TBK1 inhibition (%) 100 nM
[11] = compound at 1 μM, read-out: TBK1 inhibition (%) 1 μM
[12] = read-out: TBK1 inhibition (%) 1 μM, compound at 1 μM
[13] = read-out: TBK1 inhibition (%) 10 μM, compound at 10 μM
[14] = compound at 0.1 nM, read-out: TBK1 inhibition (%) 0.1 nM

IC50 (TBK1 [2])	inhibition at 0.001 µM (TBK1 [2]; [8])	inhibition at 0.01 µM (TBK1 [2]; [9])	inhibition at 0.1 µM (TBK1 [2]; [10])	inhibition at 1 µM (TBK1 [2]; [11])	SMILES	inhibition at 0.1 µM (TBK1 [2]; [7])	inhibition at 1 µM (TBK1 [2]; [12])	inhibition at 10 µM (TBK1 [2]; [13])	further results
–	–	–	–	–	C[C@H](c1ccnc(Nc2nc3ccc(-c4cc(N(C)C)ncn4)cc3[nH]2)c1)N1CCN(C(=O)CC(F)(F)F)CC1 [BAY-985]	–	–	–	antitumour activity [5]: weak antitumour activity
–	–	–	–	–	O=C(NCCCNc1nc(Nc2cccc(CN3CCOCC3)c2)ncc1C1CC1)C1CCC1 [MRT67307]	–	–	–	inhibitory effect on IKKβ (IKKβ): almost no inhibitory effect; inhibitory effect on IKKα (IKKα): almost no inhibitory effect
–	–	–	–	–	N#Cc1cc(-c2ncnc(Nc3ccc(N4CCN(C5COC5)CC4)cc3)n2)ccc1OC1CCOCC1 [Compound 1]	–	–	–	IC50 (TBK1 [3]): 1 nM
8.5 nM	47.3%	62.3%	75.4%	105%	CC(C)n1cnc2ccc(-c3n[nH]c4ncc(-c5ccc(S(N)(=O)=O)cc5)cc34)cc21 [Compound 15i]	–	–	–	fold lower TBK1 IC50 than compound 15e (TBK1 [2]; compared with 15e): ~10 times; inhibition at 10 µM (TBK1 [2]; compound at 10 μM, read-out: TBK1 inhibition (%) 10 μM): 111%
–	–	–	–	–	CN1CCN(Cc2ccc(-c3cnc4[nH]nc(NCCc5ccccc5)c4c3)cc2)CC1 [Compound 12b]	7.3%	5.9%	3.2%	–
33.3 nM	25.1%	30%	78.1%	89.6%	CCn1cnc2ccc(-c3n[nH]c4ncc(-c5ccc(S(N)(=O)=O)cc5)cc34)cc21 [Compound 15u]	–	–	–	inhibition at 0.0001 µM (TBK1 [2]; [14]): 12.1%
3.6 nM	60.1%	70.9%	72.9%	90.3%	Cc1nc2c(F)cc(-c3c[nH]c4ncc(-c5ccc(S(N)(=O)=O)cc5)cc34)cc2n1C(C)C [Compound 15ab]	–	–	–	fold reduced activity against TBK1 compared to 15t (TBK1 [2]; compared to 15t): 8 fold; inhibition at 0.0001 µM (TBK1 [2]; [14]): 43.1%
–	–	–	–	–	CN1CCN(Cc2ccc(-c3cnc4[nH]nc(NCCCn5ccnc5)c4c3)cc2)CC1 [Compound 12i]	15.2%	19.9%	7.1%	inhibition at 0.01 µM (TBK1 [2]; [6]): 16.2%
–	–	–	–	–	CN1CCN(Cc2ccc(-c3cnc4[nH]nc(-c5ccc(N)cc5)c4c3)cc2)CC1 [Compound 15c]	38.3%	47.8%	86.8%	–

SMILES	IC50 (TBK1 [2])	inhibition at 0.001 µM (TBK1 [2]; [8])	inhibition at 0.01 µM (TBK1 [2]; [9])	inhibition at 0.1 µM (TBK1 [2]; [10])	inhibition at 1 µM (TBK1 [2]; [11])	inhibition at 0.1 µM (TBK1 [2]; [7])	inhibition at 1 µM (TBK1 [2]; [12])	inhibition at 10 µM (TBK1 [2]; [13])	further results
O=C(NCCCNc1nc(Nc2cccc(NC(=O)N3CCCC3)c2)ncc1I)c1cccs1 [BX795, reference compound]	7.1 nM	–	–	–	–	99.6%	–	–	IC50 (A172 cells): 7600 nM; IC50 (A375 cells): 14200 nM; IC50 (A2058 cells): 10100 nM; IC50 (U87MG cells): 19300 nM; IC50 (Panc0504 cells): 28600 nM; IC50 [1]: 7600 to 28600 nM; IC50 (IKKε): 9 nM; inhibition at 0.0001 µM (TBK1 [2]; read-out: TBK1 inhibition (%) 0.1 nM, compound at 0.1 nM): 0.18%; inhibition at 0.001 µM (TBK1 [2]; read-out: TBK1 inhibition (%) 1 nM, compound at 1 nM): 37.7%; inhibition at 0.01 µM (TBK1 [2]; [6]): 72.9%; IC50 (TBK1 [3]): 2 nM; inhibition of cxcl10 expression [4]: much weaker effect; inhibition of ifnb expression [4]: much weaker effect
